From US20240075123A1, “TREATMENT OF CANCERS AND INFECTIOUS DISEASES WITH KILLED INTACT BACTERIA” (priority 2022, published 2024)

Key:
hepatitis B virus (HBV) [1] = experiment: AAV-HBV mouse model of chronic HBV infection, second study; assay type: in vivo
Experimental: (§1) The anti-hepatitis B virus (HBV) efficacy of Decoy was evaluated in two studies. A standard pre-clinical model was used in which the human HBV genome is inserted in an adeno-associated virus (AAV). This hybrid construct is able to infect mouse hepatocytes, producing a chronic HBV-like infection with many of the hallmarks of human HBV infection, including high levels of HBV replication in liver and blood and production of HBe and HBs antigen (HBeAg and HBsAg). AAV-HBV virus is administered to mice and then blood titers of HBV DNA are monitored. Significant and relatively stable blood levels of HBV appear within 28-31 days, at which point treatment is initiated. Indomethacin was administered with Decoy in many groups in the first study, but not in the second study.
A group of untreated animals was included in the study. All treatment was well tolerated in AAV-HB V-infected mice.
No inhibition of other infection hallmarks was observed by mIFN-alpha.

hepatitis B virus (HBV) [2] = experiment: AAV-HBV mouse model of chronic HBV infection, first study; assay type: in vivo; conditions: for HBV replication (measured in blood): 5 weeks of dosing
Experimental: as §1
In the first study, Decoy (two different doses) was tested in combination with indomethacin and also in combination with the clinical standard of care, Entecavir (ETV). ETV and indomethacin were also tested as single agents (first study). […] In addition, ETV and mIFN-alpha were tested as single agents and in combination with Decoy (one dose).
Decoy-induced body weight loss was mild, transient (6% for […] in first week of treatment) and tapered off after the first week of treatment (tolerance phenomenon) (FIG. 28).

human PBMCs = experiment: Cytokine secretion by human PBMCs in vitro; assay type: cell-based; conditions: 48 hr, full titration peak/mean of triplicates; Study AB64785
Experimental: TLR ligands such as E. coli LPS, ds E. coli DNA, E. coli peptidoglycan (PGN), Flagellin, R848, Polyinosinic-polycytidylic acid (poly I:C), and CpG oligonucleotide (ODN) were also assessed in these studies. Initial experiments were carried out with incubation for 24, 48 and 72 hours, as well as with and without immune cell activation with anti-CD3. […] In addition, maximal induction of secretion of most cytokines and chemokines occurred after 48 hours. […] Essentially all cytokines and chemokines participate in activation of innate and/or adaptive (including anti-tumor and anti-viral) immune pathways, but can also induce significant toxicity if expressed in the wrong place, at the wrong time, for too long, or at an inappropriately high level.

healthy human volunteers = conditions: purified LPS, over 1,000 healthy human volunteers; cited from earlier work
Ramos NHL xenograft = experiment: s.c. human Ramos NHL xenograft in CB17/SCID mice; design: species or system mouse; conditions: in vivo
Experimental: This was tested with the human Ramos NHL xenograft model in SCID mice, which lack B and T cells.
Maximum transient weight loss for all non-indomethacin groups was generally in the 5% to 10% range. […] However, cure of at least some percentage of the mice is possible with the 3-way combination as a repeat produced 2/4 durable regressions in mice.
The 5 tumor-regressed mice were re-challenged with fresh Ramos tumor cells (opposite flank from first challenge) on Day 74. Only 2/5 tumors grew out, compared to 5/5 with naïve mice challenged with the same fresh tumor cells (FIG. 26). […] This has been reported previously with a small number of other agents, and is considered to be very difficult to achieve. Tumor regression with immunological memory via the innate immune system alone is very rare in preclinical models, but consistent with a multiple TLR agonist mechanism.

[3] = tested on: Pan02 pancreatic carcinoma; experiment: Intrasplenic Pan02 pancreatic carcinoma, second experiment; assay type: in vivo, mouse; conditions: single agents
Excerpt: A group of animals administered Decoy vehicle was used as the control.

[4] = tested on: H22 hepatocellular carcinoma; conditions: mouse, in vivo
Experimental: Indomethacin was tested at 10 μg/mL in drinking water, p.o. ad libitum daily for either 4 or 7 weeks. […] Treatment was started when the average tumor size was 123 mm^3.

[5] = tested on: H22 hepatocellular carcinoma; experiment: s.c. H22 hepatocellular carcinoma, first study (194 mm^3); assay type: in vivo; conditions: single agents; Decoy QD×2 weekly 6 weeks
Experimental: Treatment was initiated when the average tumor size was 194 mm^3. […] Indomethacin was administered at 10 μg/mL, p.o., ad libitum daily in drinking water×6 weeks (alone and in combinations) and anti-PD-1 was administered at 10 mg/kg, i.p., BIW×2 weeks (alone and in combinations). A group of animals that received no treatment was used as the control in the study.

H22 tumors = experiment: s.c. H22 HCC, plasma cytokine/chemokine induction and one-week treatment; assay type: in vivo, mouse
Experimental: Female BALB/c mice with ˜200 mm^3 H22 tumors were randomized on Day-0 into 8 groups, each containing 3 sub-groups. All of the possible treatment approaches or combinations, including no treatment, were carried out. Mice from each of two subgroups from each group (5 mice per sub-group) were sacrificed 6 and 24 hours after no treatment, single, 2-way, or 3-way combination treatment. In the case of 2way and 3-way combination treatment, mice were sacrificed 6 and 24 hours after the first treatment instance of the second or third component of the combination. Plasma was prepared from each mouse and 32-plex ELISA-based cytokine/chemokine analysis was carried out. A third sub-group from each group (6 mice each) was treated for one week, with tumor volumes measured at randomization, once during the week and at the end of one week of treatment. Mice were sacrificed, then tumors were harvested and RNA was isolated. The 48 RNA samples were analyzed for expression of 770 genes involved in immune response pathways, using NanoString technology.
Indomethacin induced expression of only 2/32 cytokines/chemokines, and only at 6 hours after initiation of treatment. […] There was no increase in weight loss in any of the combination groups, relative to single agent treatment. […]

HIV-1 = experiment: Chronic HIV humanized hu-mouse model; assay type: in vivo; conditions: 5 weeks of treatment
[6] = tested on: H22 hepatocellular carcinoma; experiment: s.c. H22 hepatocellular carcinoma, second study (E0776-U1802); assay type: in vivo
Experimental: Indomethacin was tested at 10 μg/mL in drinking water, p.o. ad libitum daily for either 2 or 6 weeks. Anti-PD-1 was tested at 10 mg/kg, i.p. 2× per week for 2 weeks. Dosing was started when the average tumor size was 184 mm^3. A group of untreated animals was used as the control.

[7] = tested on: CT26.WT colorectal carcinoma; experiment: s.c. CT26.WT, Decoy (DB104) with cyclophosphamide (CTX); assay type: in vivo, mouse; conditions: vs untreated mice; Decoy single agent all doses (p<0.05); CTX both schedules
Experimental: Mouse CT26.WT colorectal carcinoma cells were implanted (injected) into the right flank of BALB/c mice. Animals were randomized and treatments were initiated (Starting Day=SD) with a mean group tumor weight of 75 to 79 mg. […] A group of animals that received no treatment was used as the control.

[8] = tested on: A20 non-Hodgkin's lymphoma; experiment: s.c. A20 lymphoma, Decoy dose and regimen with LDC; assay type: in vivo, mouse; conditions: LDC alone
Experimental: A group of untreated animals was used as the control. LDC alone was also tested. Treatment was initiated on Day 13 when the average tumor size was 158 mm^3.

[9] = tested on: A20 non-Hodgkin's lymphoma; experiment: s.c. A20 lymphoma, repeat and immune cell depletion; assay type: in vivo, mouse; conditions: 212 mm^3 tumors; two weeks of treatment
Experimental: A group of untreated animals was used as the control. Treatment was started when the average tumor size was 212 mm^3. […] Combination with LDC produced 12% transient weight loss in the first week and 13.6% transient weight loss in the second week.
Tumor implantation was carried out during the depletion regimen. […] Extra mice in each group were sacrificed at the time of initiation of treatment in order to verify immune cell depletion. […] The positive control included 2 groups of 6 mice each (one group received indomethacin), with 10/12 CRs/regressions (6/6 regressions without indomethacin and 4/6 regressions with added indomethacin). […] Thus, in addition to immune activation associated with innate and adaptive immune cells, LPS provides a key bridging activity between the innate and adaptive immune systems.

CT26 tumors = experiment: s.c. established CT26 tumors, Decoy with LDC; assay type: in vivo, mouse; conditions: Decoy alone 6.0×10^8; LDC 20 mg/kg i.p.; combination 3×10^8 Decoy + LDC
Excerpt: LDC alone produced a 57% ILS, which was statistically significant.

[10] = tested on: Pan02 pancreatic carcinoma; experiment: Intrasplenic Pan02 pancreatic carcinoma, first experiment; assay type: in vivo; conditions: Decoy 5×10^7 and 2×10^8 per mouse; gemcitabine 50 mg/kg i.p.
Excerpt: Pancreatic tumor cells were surgically implanted (injected) into the spleen of C57BL/6 female mice on Day 0. […] A group of untreated animals was used as the control. All untreated animals developed large tumors in the spleen, liver and pancreas, requiring termination around Day 30.

C=C1[C@H](CO)[C@@H](O)C[C@@H]1n1cnc2c(=O)[nH]c(N)nc21 [ETV, Entecavir]
plasma HBV DNA levels (hepatitis B virus (HBV) [1]; Day 31 to Day 151, no indomethacin): reduced plasma HBV DNA levels | HBV DNA and HBeAg levels in mouse liver at termination (hepatitis B virus (HBV) [1]; mouse, in vivo): not | plasma HBsAg and HBeAg levels (hepatitis B virus (HBV) [1]; mouse, in vivo): not | HBV replication (measured in blood) (hepatitis B virus (HBV) [2]): significantly inhibited HBV replication | HBeAg and HBsAg in blood (hepatitis B virus (HBV) [2]; mouse, in vivo): not to reduce or inhibit production of HBeAg or HBsAg | inhibition of HBcAg in the liver (hepatitis B virus (HBV) [2]; mouse, in vivo): not | reduction of HBV in the liver (hepatitis B virus (HBV) [2]; mouse, in vivo): not

lipopolysaccharide [LPS]
GM-CSF secretion by human PBMCs (human PBMCs): 175 pg/mL | IFNγ secretion by human PBMCs (human PBMCs): 29,416 pg/mL | IL-1β secretion by human PBMCs (human PBMCs): 4,631 pg/mL | IL-6 secretion by human PBMCs (human PBMCs): 54,174 pg/mL | IL-8 secretion by human PBMCs (human PBMCs): 143,459 pg/mL | IL-10 secretion by human PBMCs (human PBMCs): 3,542 pg/mL | IL-12p70 secretion by human PBMCs (human PBMCs): 109 pg/mL | TNFα secretion by human PBMCs (human PBMCs): 24,944 pg/mL | highest dose determined to be well-tolerated after IV administration (healthy human volunteers): 0.004 µg/kg

rituximab
single agent anti-tumor activity (Ramos NHL xenograft): inhibited or delayed

COc1ccc2c(c1)c(CC(=O)O)c(C)n2C(=O)c1ccc(Cl)cc1 [indomethacin]
survival [3]: did not increase survival significantly | Transient weight loss [4]: not seen | single agent anti-tumor activity (Ramos NHL xenograft): did not produce single agent activity | HBV replication (measured in blood) (hepatitis B virus (HBV) [2]): did not inhibit HBV replication | increase in life-span (% ILS) [5]: 30% | plasma cytokines/chemokines induced (of 32) (H22 tumors; 6 or 24 hours after treatment): 2/32 | Tumor growth inhibition relative to no treatment (H22 tumors; after one week of treatment): 17% | HIV viral load in plasma (HIV-1): inhibited HIV viral load | regressions ([6]; 6 week indomethacin treatment): did not see any regressions | regressions (6 animals per group) ([6]; indomethacin 2 weeks, indomethacin 2 weeks+anti-PD-1, Decoy QD×2 6 weeks+indomethacin 6 weeks): one | lifespan (ILS) ([6]; single agents, indomethacin 2 weeks and 6 weeks): statistically significant increase in lifespan

O=P1(N(CCCl)CCCl)NCCCO1 (stereo not drawn) [LDC, cyclophosphamide]
inhibition of tumor growth [7]: significant tumor growth inhibition | single agent anti-tumor activity [4]: weak, but statistically significant | tumor regression (group of 4) [8]: one | regressions [9]: without producing any regressions | increased lifespan (% ILS) (CT26 tumors): 57%

Polyinosinic-polycytidylic acid [Poly(I:C)]
GM-CSF secretion by human PBMCs (human PBMCs): 0 pg/mL | IFNγ secretion by human PBMCs (human PBMCs): 103 pg/mL | IL-1β secretion by human PBMCs (human PBMCs): 22 pg/mL | IL-6 secretion by human PBMCs (human PBMCs): 129 pg/mL | IL-8 secretion by human PBMCs (human PBMCs): 1,452 pg/mL | IL-10 secretion by human PBMCs (human PBMCs): 8 pg/mL | IL-12p70 secretion by human PBMCs (human PBMCs): 18 pg/mL | TNFα secretion by human PBMCs (human PBMCs): 208 pg/mL

Nc1ccn([C@@H]2O[C@H](CO)[C@@H](O)C2(F)F)c(=O)n1 [gemcitabine]
survival [3]: increased survival | single agent anti-tumor activity [4]: weak, but statistically significant | weight loss [4]: 20% | median survival time [10]: significant increase in median survival
